How the values were obtained:
TA-CA1 synapses = experiment: Acute slice electrophysiology: fEPSPs at TA-CA1 synapses after in vivo injection; parameters: species or system rat
Method: Acute slice electrophysiology. Standard methods were used to prepare 400-μm-thick transverse hippocampal slices. Dissection and recording saline contained: 124 mM NaCl, 3 mM KCl, 1.25 mM NaH2PO4, 1.5 mM MgSO4, 2.5 mM CaCl2, 26 mM NaHCO3, and 10 mM glucose, bubbled with 95% O2/5% CO2. Slices were then transferred to a submersion-type recording chamber and perfused at 0.5 2 ml/min at 20-22° C. Picrotoxin (100 μM) and CGP52432 (2 μM) were included to block GABAA and GABAB receptors, and the CA3 region was removed with a scalpel. Because TA-CA1 synapses are electrotonically remote from CA1 cell somata, extracellular recording of local field excitatory postsynaptic potentials (fEPSPs) was used. Recording pipettes (3-5 MSΩ) contained extracellular saline and were placed in stratum lacunosum-moleculare (SLM) to record TA-CA1 responses. fEPSPs were amplified 1000×, filtered at 3 kHz, and digitized at 10 kHz. Concentric bipolar tungsten electrodes were placed >500 μm from the […] in SLM for TA afferents. Stimuli (100 μs) were delivered at 0.05 Hz.
As in previous work (Kallarackal et al., 2013), Mg2+-free saline was used to produce a robust NMDAR-mediated component of the fEPSP for quantification of AMPAR-mediated synaptic excitation. 3-5 consecutive responses were averaged and fEPSP slope was calculated over a 1-3 ms window. […] For NMDA responses, DNQX (50 μM) was bath applied for 15 min and the slope was calculated over a 3-5 ms window in the rising phase of the response, 5-10 ms after its initiation. […]
The inventors used extracellular electrophysiological recording of fEPSPs at TA-CA1 synapses in SLM of area CA1 in brain slices prepared from unstressed rats, rats subjected to ten days of CRS and given a vehicle injection 24 hrs earlier, and rats subjected to ten days of CRS and given an L-655,708 injection 24 hrs earlier (0.7 mg/kg, i.p.). These were the same rats used for the behavioral analyses in FIG. 6. fEPSPs were recorded in ACSF lacking added Mg2+ so as to unblock NMDA receptors. […]

ΔFosB = experiment: FosB and ΔFosB expression after injection; assay type: in vivo, rat
Description: D3. Nestler and colleagues have shown that induction of the transcription factor ΔFosB in D1R-expressing medium spiny neurons in the NAc in response to chronic stress is an important mediator of resilience and may play a role in the antidepressant actions of fluoxetine by changing gene expression and synaptic strength (Perrotti et al., 2004; Lobo et al., 2013; Grueter et al., 2013). It is considered whether alpha5 GABA-NAM injection also affects deltaFosB expression. Control and CRS-susceptible rats receive an injection of L-665, 708. […] Tissue punches are taken from the NAc, area CA1, EC, and PFC and subjected to Western blotting for quantification of deltaFosB levels. Sections are prepared from these same regions and stained for ΔFosB in order to count immunoreactive nuclei with stereological techniques (Vialou et al., 2010). Sections through the ventral striatum are co-stained with an antibody against the D1R, since the expression of ΔFosB in these cells may be particularly important for SSRI actions (Lobo et a/., 2013). Similar to fluoxetine, in specific embodiments in stressed and unstressed animals, alpha5 GABA-NAM affects ΔFosB expression in the NAc and other brain regions, consistent with initial studies (FIG. 5).

rats = experiment: Open field test (anxiety); details: rat, in vivo
Description: C1. One cohort of control rats are given a baseline open field test. One week later, half of the animals receive an injection of L-665,708 or vehicle, followed 24 hrs later by a second open field test in a new arena.

[1] = target: GABAARs containing the alpha5 subunit (Homo sapiens, UniProt P18507+P31644); details: Atack et al., 2005; 2006; cited from earlier work
Sequence of GABAARs containing the alpha5 subunit (P31644 32-462): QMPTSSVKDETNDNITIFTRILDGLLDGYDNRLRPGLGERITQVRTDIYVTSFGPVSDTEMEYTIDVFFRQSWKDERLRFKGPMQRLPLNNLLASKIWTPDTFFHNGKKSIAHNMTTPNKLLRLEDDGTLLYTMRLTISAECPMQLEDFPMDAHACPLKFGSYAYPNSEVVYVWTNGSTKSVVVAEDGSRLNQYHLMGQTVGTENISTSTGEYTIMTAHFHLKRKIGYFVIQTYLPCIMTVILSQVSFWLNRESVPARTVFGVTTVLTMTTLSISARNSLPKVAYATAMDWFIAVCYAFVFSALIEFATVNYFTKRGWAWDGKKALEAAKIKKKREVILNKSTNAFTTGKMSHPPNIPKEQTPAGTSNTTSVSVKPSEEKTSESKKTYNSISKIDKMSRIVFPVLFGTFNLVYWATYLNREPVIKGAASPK
Sequence of GABAARs containing the alpha5 subunit (P18507 40-475): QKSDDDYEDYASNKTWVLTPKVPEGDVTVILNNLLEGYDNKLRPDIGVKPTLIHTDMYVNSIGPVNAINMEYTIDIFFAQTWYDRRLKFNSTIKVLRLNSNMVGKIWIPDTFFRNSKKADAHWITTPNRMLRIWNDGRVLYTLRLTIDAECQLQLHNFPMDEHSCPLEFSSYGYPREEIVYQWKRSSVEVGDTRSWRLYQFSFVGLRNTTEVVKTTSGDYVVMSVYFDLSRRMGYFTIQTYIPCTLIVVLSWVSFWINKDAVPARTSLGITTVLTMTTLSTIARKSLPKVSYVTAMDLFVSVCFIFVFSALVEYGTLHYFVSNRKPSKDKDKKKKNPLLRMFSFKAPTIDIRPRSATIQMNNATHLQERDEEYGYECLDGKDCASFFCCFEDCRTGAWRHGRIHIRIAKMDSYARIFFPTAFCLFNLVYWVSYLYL
Sequence of GABAARs containing the alpha5 subunit (P28472 26-473 partner): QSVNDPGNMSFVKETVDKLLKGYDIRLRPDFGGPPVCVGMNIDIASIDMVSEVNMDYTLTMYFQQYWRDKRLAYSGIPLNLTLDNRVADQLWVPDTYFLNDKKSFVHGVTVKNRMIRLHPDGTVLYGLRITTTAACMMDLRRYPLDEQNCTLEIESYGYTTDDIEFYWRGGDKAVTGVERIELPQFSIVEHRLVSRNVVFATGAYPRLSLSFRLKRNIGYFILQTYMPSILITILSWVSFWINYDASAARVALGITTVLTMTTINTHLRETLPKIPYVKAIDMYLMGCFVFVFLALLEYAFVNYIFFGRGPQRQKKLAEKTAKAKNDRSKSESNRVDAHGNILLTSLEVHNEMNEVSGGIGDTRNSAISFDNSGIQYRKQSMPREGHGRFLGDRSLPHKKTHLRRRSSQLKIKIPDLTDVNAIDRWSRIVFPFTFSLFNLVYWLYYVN

[2] = test system: amnestic properties of the anesthetic etomidate; details: 0.7 mg/kg i.p.; Martin et al (2009); cited from earlier work
[3] = slices from rats after 10 days CRS, L-655,708 0.7 mg/kg i.p. 24 hrs earlier

## CCOC(=O)c1ncn2c1[C@@H]1CCCN1C(=O)c1cc(OC)ccc1-2 [L-655,708, ethyl (13aS)-7-methoxy-9-oxo-11, 12,13,13 a-terahydro-9H-imidazo[1,5-a]pyrrolo[2,1-c] [1,4]benzodiazepine-1-carboxylate]
TA-CA1 synapses; slices from CRS rats, L-655,708 24 hrs earlier, compared to vehicle-treated CRS animals
  AMPA:NMDA ratio: significantly higher
TA-CA1 synapses; [3]
  AMPAR-mediated signaling at TA-CA1 synapses (slope of AMPAR component of fEPSP): reversed rapidly
  slope of the NMDA component of the fEPSP: no corresponding difference
ΔFosB; 24 hrs after injection
  expression of FosB and ΔFosB: No changes were apparent
ΔFosB; unstressed animals, one hour after injection
  expression of FosB and ΔFosB in the NAc: increase
rats
  anxiety in the open field test: no evidence of increased anxiety
[1]
  selectivity for GABAARs containing the alpha5 subunit: 10-100 fold
[2]
  effect on amnestic properties of etomidate: reverse the amnestic properties

From patent US11083732B2, “Use of negative modulators of GABA receptors containing alpha5 subunits as fast acting antidepressants” (University of Maryland, Baltimore, priority 2014, dated 2021)
